Measurements published in patent publication US20130338106A1, “COMPOUNDS INHIBITING LEUCINE-RICH REPEAT KINASE ENZYME ACTIVITY” (priority 2011, published 2013).

Biological target: T1, LRRK2 G2019S mutant kinase (Homo sapiens, UniProt Q5S007, G2019S)
T1 construct: GST; purchased Invitrogen PV4882
Experiment: LRRK2 G2019S LanthaScreen TR-FRET kinase assay
Format: biochemical
Conditions: LRRK2 G2019S GST-tagged protein, 100 μM ATP, LRRKtide substrate; read-out: IC50 (potency)
Experimental: Activity of compounds against LRRK2 G2019S mutant kinase function was tested in a LANTHAScreen® assay as follows: Compounds were diluted in 100% DMSO to the desired test concentrations in white, low-volume 384-well plates (PerkinElmer ProxiPlate® PN: 6008280). TR-FRET kinase reactions (10 μL) were performed with 75 nM Fluorescein-ERM (LRRKtide, Invitrogen, PN:PV4901) substrate in a final assay buffer containing 100 μM ATP and 2 mM DTT diluted in commercially available Kinase Buffer S (Invitrogen PN: PV5213). The final solvent concentration in the assay was 1% DMSO. Reactions were initiated with the addition of 10 ng/well of LRRK2 02019S, GST-tagged protein (Invitrogen PN: PV4882). After incubation of the foil sealed reaction plates at room temperature with low speed mixing for 1 hour, the kinase reaction was stopped and the amount of substrate phosphorylation was detected by addition of 10 μL of 10 mM EDTA and 2 nM Tb-anti-pERM (pLRRKtide antibody, Invitrogen, PN: PV4898) antibody in TR-FRET dilution buffer (Invitrogen PN: PV3574). After a 30 minute incubation at room temperature with low speed mixing, foil seals were removed and measurements were obtained on a PerkinElmer EnVision with excitation 340 nm, emission 520 nm (channel 1): 495 nm (channel 2) settings. Generation of raw data and workup of data to derive the IC50 (potency) and maximal inhibition at concentrations tested were performed using Merck's Assay Data Analyzer (ADA) software.

T1 sequence (Q5S007 whole entry G2019S): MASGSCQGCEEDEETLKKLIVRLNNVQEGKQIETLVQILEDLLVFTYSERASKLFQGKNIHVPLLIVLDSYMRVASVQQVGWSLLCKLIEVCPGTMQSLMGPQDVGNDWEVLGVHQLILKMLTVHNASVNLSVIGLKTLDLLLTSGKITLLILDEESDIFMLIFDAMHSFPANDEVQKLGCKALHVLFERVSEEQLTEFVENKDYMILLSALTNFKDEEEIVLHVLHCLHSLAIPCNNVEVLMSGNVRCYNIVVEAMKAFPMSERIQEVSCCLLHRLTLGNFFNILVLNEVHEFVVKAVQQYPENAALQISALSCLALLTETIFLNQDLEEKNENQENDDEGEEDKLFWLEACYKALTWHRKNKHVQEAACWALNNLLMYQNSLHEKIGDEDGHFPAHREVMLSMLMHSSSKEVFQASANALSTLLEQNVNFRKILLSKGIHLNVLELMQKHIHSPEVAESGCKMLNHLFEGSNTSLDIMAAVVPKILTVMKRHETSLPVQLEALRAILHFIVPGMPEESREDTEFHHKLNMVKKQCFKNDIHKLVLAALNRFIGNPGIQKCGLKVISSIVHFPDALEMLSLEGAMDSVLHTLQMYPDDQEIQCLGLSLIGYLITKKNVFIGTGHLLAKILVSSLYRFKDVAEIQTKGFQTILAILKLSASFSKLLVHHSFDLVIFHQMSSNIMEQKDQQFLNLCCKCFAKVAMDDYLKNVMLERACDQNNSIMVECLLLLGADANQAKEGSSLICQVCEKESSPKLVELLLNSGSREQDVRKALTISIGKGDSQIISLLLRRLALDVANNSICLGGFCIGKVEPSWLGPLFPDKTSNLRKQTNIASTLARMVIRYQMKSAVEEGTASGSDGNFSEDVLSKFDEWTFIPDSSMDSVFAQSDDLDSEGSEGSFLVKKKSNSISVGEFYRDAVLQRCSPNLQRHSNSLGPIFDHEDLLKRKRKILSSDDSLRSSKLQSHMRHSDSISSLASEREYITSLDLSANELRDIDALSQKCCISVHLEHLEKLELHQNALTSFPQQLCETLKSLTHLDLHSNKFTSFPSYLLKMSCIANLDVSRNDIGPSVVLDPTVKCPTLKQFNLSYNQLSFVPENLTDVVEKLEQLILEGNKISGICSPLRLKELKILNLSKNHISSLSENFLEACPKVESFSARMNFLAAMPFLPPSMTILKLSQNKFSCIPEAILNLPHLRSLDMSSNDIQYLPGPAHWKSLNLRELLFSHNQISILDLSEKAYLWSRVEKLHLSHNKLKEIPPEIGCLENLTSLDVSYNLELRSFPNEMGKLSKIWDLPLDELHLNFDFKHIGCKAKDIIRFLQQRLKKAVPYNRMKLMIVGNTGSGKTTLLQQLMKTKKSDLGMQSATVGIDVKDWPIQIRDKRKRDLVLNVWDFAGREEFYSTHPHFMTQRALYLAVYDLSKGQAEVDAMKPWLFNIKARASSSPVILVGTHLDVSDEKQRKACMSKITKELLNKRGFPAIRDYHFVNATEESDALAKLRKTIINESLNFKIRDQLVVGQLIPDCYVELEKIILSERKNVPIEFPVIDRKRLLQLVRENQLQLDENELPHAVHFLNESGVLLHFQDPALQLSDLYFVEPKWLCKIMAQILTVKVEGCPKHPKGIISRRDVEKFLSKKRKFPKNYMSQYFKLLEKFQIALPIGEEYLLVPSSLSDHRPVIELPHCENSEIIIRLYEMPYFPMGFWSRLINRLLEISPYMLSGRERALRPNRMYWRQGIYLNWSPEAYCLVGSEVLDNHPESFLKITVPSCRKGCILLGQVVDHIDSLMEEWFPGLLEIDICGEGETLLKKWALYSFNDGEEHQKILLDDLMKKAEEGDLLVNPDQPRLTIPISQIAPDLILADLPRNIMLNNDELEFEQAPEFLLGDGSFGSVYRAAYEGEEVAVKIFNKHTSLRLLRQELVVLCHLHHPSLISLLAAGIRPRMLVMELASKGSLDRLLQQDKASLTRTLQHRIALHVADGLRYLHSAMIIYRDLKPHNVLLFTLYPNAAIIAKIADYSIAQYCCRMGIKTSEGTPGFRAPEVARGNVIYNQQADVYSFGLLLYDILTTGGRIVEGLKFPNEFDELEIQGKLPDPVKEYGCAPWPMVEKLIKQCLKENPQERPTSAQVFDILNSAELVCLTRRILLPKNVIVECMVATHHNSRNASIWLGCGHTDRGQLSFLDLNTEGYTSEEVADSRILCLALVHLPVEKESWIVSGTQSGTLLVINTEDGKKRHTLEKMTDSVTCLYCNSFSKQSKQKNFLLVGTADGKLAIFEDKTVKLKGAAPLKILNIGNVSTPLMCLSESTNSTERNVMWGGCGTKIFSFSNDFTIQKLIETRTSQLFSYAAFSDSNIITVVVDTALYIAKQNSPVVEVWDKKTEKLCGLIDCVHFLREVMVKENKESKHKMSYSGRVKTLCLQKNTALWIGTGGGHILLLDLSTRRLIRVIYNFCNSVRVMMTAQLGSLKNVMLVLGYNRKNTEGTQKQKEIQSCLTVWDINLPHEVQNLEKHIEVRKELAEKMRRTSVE

Structure (SMILES) | IC50
Cc1nnc(Sc2sc(-c3cc[nH]n3)c3c2C(=O)CC(C)(C)C3)s1 [Example 32, 6,6-Dimethyl-3-[(5-methyl-1,3,4-thiadiazol-2-yl)sulfanyl]-1-(1H-pyrazol-3-yl)-6,7-dihydro-2-benzothiophen-4(5H)-one] | 4000 nM
CC1(C)CC(=O)c2c(SCCCCl)sc(-c3cc[nH]n3)c2C1 [Example 33, 3-[(3-Chloropropyl)sulfanyl]-6,6-dimethyl-1-(1H-pyrazol-3-yl)-6,7-dihydro-2-benzothiophen-4(5H)-one] | 120 nM
CCCCCCSc1sc(-c2cc[nH]n2)c2c1C(=O)CC(C)(C)C2 [Example 34, 3-(Hexylsulfanyl)-6,6-dimethyl-1-(1H-pyrazol-3-yl)-6,7-dihydro-2-benzothiophen-4(5H)-one] | 1300 nM
CCCNc1sc(-c2cc[nH]n2)c2c1C(=O)CC(C)(C)C2 [Example 35, 6,6-Dimethyl-3-(propylamino)-1-(1H-pyrazol-3-yl)-6,7-dihydro-2-benzothiophen-4(5H)-one] | 150 nM
CNc1sc(-c2cc[nH]n2)c2c1C(=O)CC(C)(C)C2 [Example 36, 6,6-Dimethyl-3-(methylamino)-1-(1H-pyrazol-3-yl)-6,7-dihydro-2-benzothiophen-4(5H)-one] | 760 nM
CC(C)Nc1sc(-c2cc[nH]n2)c2c1C(=O)CC(C)(C)C2 [Example 37, 6,6-Dimethyl-3-(propan-2-ylamino)-1-(1H-pyrazol-3-yl)-6,7-dihydro-2-benzothiophen-4(5H)-one] | 180 nM
CCNc1sc(-c2cc[nH]n2)c2c1C(=O)CC(C)(C)C2 [Example 38, 3-(Ethylamino)-6,6-dimethyl-1-(1H-pyrazol-3-yl)-6,7-dihydro-2-benzothiophen-4(5H)-one] | 290 nM
CC1(C)CC(=O)c2c(NC3CCCCC3)sc(-c3cc[nH]n3)c2C1 [Example 39, 3-(Cyclohexylaminn)-6,6-dimethyl-1-(1H-pyrazol-3-yl)-6,7-dihydro-2-benzothiophen-4(5H)-one] | 240 nM
CC1(C)CC(=O)c2c(N3CCC3)sc(-c3cc[nH]n3)c2C1 [Example 40, 3-(Azetidin-1-yl)-6,6-dimethyl-1-(1H-pyrazol-3-yl)-6,7-dihydro-2-benzothiophen-4(5H)-one] | 580 nM
CN(C)c1sc(-c2cc[nH]n2)c2c1C(=O)CC(C)(C)C2 [Example 41, 3-(Dimethylamino)-6,6-dimethyl-1-(1H-pyrazol-3-yl)-6,7-dihydro-2-benzothiophen-4(5H)-one] | 2000 nM
CN1CCN(CCCNc2sc(-c3cc[nH]n3)c3c2C(=O)CC(C)(C)C3)CC1 [Example 42, 6,6-Dimethyl-3-{[3-(4-methylpiperazin-1-yl)propyl]amino}-1-(1H-pyrazol-3-yl)-6,7-dihydro-2-benzothiophen-4(5H)-one] | 420 nM
CN1CCN(c2sc(-c3cc[nH]n3)c3c2C(=O)CC(C)(C)C3)CC1 [Example 43, 6,6-Dimethyl-3-(4-methylpiperazin-1-yl)-1-(1H-pyrazol-3-yl)-6,7-dihydro-2-benzothiophen-4(5H)-one] | 4000 nM
CC1(C)CC(=O)c2c(NCc3ccco3)sc(-c3cc[nH]n3)c2C1 [Example 44, 3-[(Furan-2-ylmethyl)amino]-6,6-dimethyl-1-(1H-pyrazol-3-yl)-6,7-dihydro-2-benzothiophen-4(5H)-one] | 380 nM
CC1(C)CC(=O)c2c(NCCN3CCOCC3)sc(-c3cc[nH]n3)c2C1 [Example 45, 6,6-Dimethyl-3-{[2-(morpholin-4-yl)ethyl]amino}-1-(1H-pyrazol-3-yl)-6,7-dihydro-2-benzothiophen-4(5H)-one] | 250 nM
CC1(C)CC(=O)c2c(NC3CC3)sc(-c3cc[nH]n3)c2C1 [Example 46, 3-(Cyclopropylamino)-6,6-dimethyl-1-(1H-pyrazol-3-yl)-6,7-dihydro-2-benzothiophen-4(5H)-one] | 210 nM
CC1(C)CC(=O)c2c(NCCc3ccccn3)sc(-c3cc[nH]n3)c2C1 [Example 47, 6,6-Dimethyl-1-(1H-pyrazol-3-yl)-3-{[2-(pyridin-2-yl)ethyl]amino}-6,7-dihydro-2-benzothiophen-4(5H)-one] | 290 nM
CC1(C)CC(=O)c2c(NCc3ccccn3)sc(-c3cc[nH]n3)c2C1 [Example 48, 6,6-Dimethyl-1-(1H-pyrazol-3-yl)-3-[(pyridin-2-ylmethyl)amino]-6,7-dihydro-2-benzothiophen-4(5H)-one] | 620 nM
CC1(C)CC(=O)c2c(NC3CCCC3)sc(-c3cc[nH]n3)c2C1 [Example 49, 3-(Cyclopentylamino)-6,6-dimethyl-1-(1H-pyrazol-3-yl)-6,7-dihydro-2-benzothiophen-4(5H)-one] | 97 nM
CC1(C)CC(=O)c2c(NCCCCCCO)sc(-c3cc[nH]n3)c2C1 [Example 50, 3-[(6-Hydroxyhexyl)amino]-6,6-dimethyl-1-(1H-pyrazol-3-yl)-6,7-dihydro-2-benzothiophen-4(5H)-one] | 180 nM
CC1(C)CC(=O)c2c(N[C@H]3CC[C@H](O)CC3)sc(-c3cc[nH]n3)c2C1 [Example 51, 3-[(trans-4-Hydroxycyclohexyl)amino]-6,6-dimethyl-1-(1H-pyrazol-3-yl)-6,7-dihydro-2-benzothiophen-4(5H)-one] | 220 nM
CC1(C)CC(=O)c2c(OC3CCCC3)sc(-c3cc[nH]n3)c2C1 [Example 52, 3-(Cyclopentyloxy)-6,6-dimethyl-1-(1H-pyrazol-3-yl)-6,7-dihydro-2-benzothiophen-4(5H)-one] | 300 nM
CC1(C)CC(=O)c2c(OC3CCC3)sc(-c3cc[nH]n3)c2C1 [Example 53, 3-(Cyclobutylexy)-6,6-dimethyl-1-(1H-pyrazol-3-yl)-6,7-dihydro-2-benzothiophen-4(5H)-one] | 430 nM
CC(C)Oc1sc(-c2cc[nH]n2)c2c1C(=O)CC(C)(C)C2 [Example 54, 6,6-Dimethyl-3-(propan-2-yloxy)-1-(1H-pyrazol-3-yl)-6,7-dihydro-2-benzothiophen-4(5H)-one] | 790 nM
CC1(C)CC(=O)c2c(Oc3ccccc3)sc(-c3cc[nH]n3)c2C1 [Example 55, 6,6-Dimethyl-3-phenoxy-1-(1H-pyrazol-3-yl)-6,7-dihydro-2-benzothiophen-4(5H)-one] | 4200 nM
CCCc1sc(-c2cc[nH]n2)c2c1C(=O)CC(C)(C)C2 [Example 56, 6,6-Dimethyl-3-propyl-1-(1H-pyrazol-3-yl)-6,7-dihydro-2-benzothiophen-4(5H)-one] | 2200 nM
CC(C)NC(=O)n1ccc(-c2sc(SC3CCCC3)c3c2CC(C)(C)CC3=O)n1 [Example 57] | 1400 nM
COc1ccc(NC(=O)n2ccc(-c3sc(SC4CCCC4)c4c3CC(C)(C)CC4=O)n2)cc1 [Example 58, 3-[3-(Cyclopentylsulfanyl)-6,6-dimethyl-4-oxo-4,5,6,7-tetrahydro-2-benzothiophen-1-yl]-N-(4-methoxyphenyl)-1H-pyrazole-1-carboxamide] | 110 nM
CC1(C)CC(=O)c2c(SC3CCCC3)sc(-c3ccn(C(=O)Nc4ccc(C(F)(F)F)cc4)n3)c2C1 [Example 59, 3-[3-(Cyclopentylsulfanyl)-6,6-dimethyl-4-oxo-4,5,6,7-tetrahydro-2-benzothiophen-1-yl]-N-[4-(trifluoromethyl)phenyl]-1H-pyrazole-1-carboxamide] | 93 nM
